# Experimental data reported in patent US20050245527A1, “Nitrogen containing heterocyclic compounds and medicines containing the same” (priority 2002, published 2005).
# Where a name gives a salt, the structure may show the parent alone.
# Tested on: sodium channels
# Assay: not given
# Type: cell-based
# Conditions: read-out: IC50 (μM), sodium channel-inhibiting activity; rat fetal cultured hippocampal neurons, SBFI fluorescence in the presence of 4-aminopyridine, 5 minutes after addition, 1 μM tetrodotoxin = 100%
row,SMILES,IC50
1,"O=c1[nH]ccnc1CN1CCOC(COc2ccccc2F)C1 (stereo not shown) [Example 342, 3-[3-(2-Fluorophenoxymethyl)morpholin-1-yl]methyl-1H-pyrazin-2-one]",3 µM
2,"O=C(Cc1ccccc1OC(F)(F)F)C1CCN(Cc2ncc[nH]c2=O)CC1 [Example 345, 3-[4-[2-[2-(Trifluoromethoxy)phenyl]acetyl]piperidino]methyl-1H-pyrazin-2-one]",2.1 µM
3,"CCCOc1ccccc1CC(=O)C1CCN(Cc2ncc[nH]c2=O)CC1 [Example 348, 3-[4-[2-(2-n-Propoxyphenyl)acetyl]piperidino]methyl-1H-pyrazin-2-one]",2.6 µM
4,"CC(C(=O)C1CCN(Cc2ncc[nH]c2=O)CC1)c1ccccc1F (stereo not shown) [Example 349, 3-[4-[2-(2-Fluorophenyl)propionyl]piperidino]methyl-1H-pyrazin-2-one]",8.9 µM
5,"O=C(Cc1cccc2ccccc12)C1CCN(Cc2ncc[nH]c2=O)CC1 [Example 353, 3-[4-[2-(1-Naphthyl)acetyl]piperidino]methyl-1H-pyrazin-2-one]",1.7 µM
6,"CC1(COc2ccccc2Cl)CCN(Cc2ncc[nH]c2=O)CC1 [Example 354, 3-[4-(2-Chlorophenoxymethyl)-4-methylpiperidino]methyl-1H-pyrazin-2-one]",2.8 µM
7,"Cc1ccccc1OCC1(C)CCN(Cc2ncc[nH]c2=O)CC1 [Example 355, 3-[4-Methyl-4-(2-methylphenoxymethyl)piperidino]methyl-1H-pyrazin-2-one]",2.5 µM
8,"COc1ccccc1OCC1(C)CCN(Cc2ncc[nH]c2=O)CC1 [Example 356, 3-[4-(2-Methoxyphenoxymethyl)-4-methylpiperidino]methyl-1H-pyrazin-2-one]",2.9 µM
9,"O=C(Cc1ccccc1-c1ccccc1)C1CCN(Cc2ncc[nH]c2=O)CC1 [Example 359, 3-[4-[2-(2-Biphenyl)acetyl]piperidino]methyl-1H-pyrazin-2-one]",1.4 µM
10,"O=C(Cc1ccccc1Br)C1CCN(Cc2ncc[nH]c2=O)CC1 [Example 362, 3-[4-[2-(2-Bromophenyl)acetyl]piperidino]methyl-1H-pyrazin-2-one]",4.5 µM
11,"O=C(Cc1ccccc1F)C1CCN(Cc2ccn[nH]c2=O)CC1 [Example 364, 4-[4-[2-(2-Fluorophenyl)acetyl]piperidino]methyl-2H-pyridazin-3-one]",9.3 µM
12,"O=C(Cc1ccccc1F)C1(F)CCN(Cc2ncc[nH]c2=O)CC1 [Example 370, 3-[4-Fluoro-4-[2-(2-fluorophenyl)acetyl]piperidino]methyl-1H-pyrazin-2-one]",9.6 µM
13,"O=C1CN(Cc2ncc[nH]c2=O)CCC1CCc1ccccc1F (stereo not shown) [Example 371, 3-[4-[2-(2-Fluorophenyl)ethyl]-3-oxopiperidino]methyl-1H-pyrazin-2-one]",9 µM
14,"O=C(Cc1ccccc1C(F)(F)F)C1(F)CCN(Cc2ncc[nH]c2=O)CC1 [Example 372, 3-[4-Fluoro-4-[2-[2-(trifluoromethyl)phenyl]acetyl]piperidino]methyl-1H-pyrazin-2-one]",3.3 µM
15,"O=c1[nH]ccnc1CN1CCCC(COc2ccccc2F)CC1 (stereo not shown) [Example 388, 3-[4-(2-Fluorophenoxymethyl)azepan-1-yl]methyl-1H-pyrazin-2-one]",4.7 µM
16,"CC(c1ncc[nH]c1=O)N1CCC(COc2ccccc2F)CC1 (stereo not shown) [Example 395, 3-[1-[4-(2-Fluorophenoxymethyl)piperidino]ethyl]-1H-pyrazin-2-one oxalate]",6.7 µM
17,"O=c1[nH]ccnc1CN1CCC([S+]([O-])Cc2ccccc2F)CC1 (stereo not shown) [Example 398, 3-[4-(2-Fluorobenzylsulfinyl)piperidino]methyl-1H-pyrazin-2-one]",3.4 µM
18,"CC1(COc2ccccc2F)CCN(Cc2ncc[nH]c2=O)CC1 [Example 406, 3-[4-(2-Fluorophenoxymethyl)-4-methylpiperidino]methyl-1H-pyrazin-2-one]",3 µM
19,"O=C(Cc1cccc2c1OCC2)C1CCN(Cc2ncc[nH]c2=O)CC1 [Example 410, 3-[4-[2-(2,3-Dihydrobenzofuran-7-yl)acetyl]piperidino]methyl-1H-pyrazin-2-one]",5.7 µM
20,"O=c1[nH]ccnc1CN1CCC(SCc2ccccc2F)CC1 [Example 411, 3-[4-(2-Fluorobenzylthio)piperidino]methyl-1H-pyrazin-2-one]",4.8 µM
21,"O=c1[nH]ccnc1CN1CCC(/C=C/c2ccccc2OCC2CCCCC2)CC1 [Example 412, (E)-3-[4-[2-[2-(Cyclohexylmethyloxy)phenyl]vinyl]piperidino]methyl-1H-pyrazin-2-one oxalate]",1.2 µM

# Tested on: left saphenous nerve of rats (ectopic firing)
# Assay: Inhibition of ectopic firing
# Type: in vivo
# Conditions: Rattus norvegicus, iv; rats with cut left saphenous nerve, urethane anesthesia, compound via catheter in right cervical vein, number of firings in 10 seconds; read-out: Inhibition of ectopic firing (ID50)
# Procedure: <Inhibition of Ectopic Firing>
# (1) The inhibitory effect on ectopic firing was evaluated by the following method, with reference to Burchiel, K J., Exp. Neurol., 102, 249-253 (1988).
# (2) The left saphenous nerve of rats, in which ectopic firing was observed, was cut near the knee joint, and approximately 3 mm was cut off to avoid reattachment of the cut nerve. After more than a week, the left saphenous nerve was exposed under urethane (1 g/kg body weight) anesthesia, and the proximal part up to approximately 1 cm from the cut site was detached from the surrounding tissue. A catheter was inserted in the right cervical vein beforehand for administration of the compound.
# (3) The detached nerve was placed on a platinum hook electrode and wetted with liquid paraffin to avoid drying of the nerve. The electrode was connected to a microelectrode amplifier, and the change in potential was recorded from an oscilloscope through an A/D converter onto a computer. The recorded nerve firing was evaluated based on the number of firings in 10 seconds, using analyzing software (AcqKnowledge).
row,SMILES,ED50
1,"Cc1ccccc1OCC1(C#N)CCN(Cc2ccc[nH]c2=O)CC1 [Example 122, 1-(2-Oxo-1,2-dihydro-3-pyridylmethyl)-4-(2-methylphenoxymethyl)piperidine-4-carbonitrile]",< 0.5 mg/kg
2,"O=c1[nH]cccc1CN1CCC(CCc2ccccc2F)(COc2ccccc2F)CC1 [Example 127, 3-[4-(2-Fluorophenoxymethyl)-4-[2-(2-fluorophenyl)ethyl]piperidino]methyl-1H-pyridin-2-one]",0.5 to 1 mg/kg
3,"Cc1ccccc1OCC1(CCc2ccccc2F)CCN(Cc2ccc[nH]c2=O)CC1 [Example 128, 3-[4-[2-(2-Fluorophenyl)ethyl]-4-(2-methylphenoxymethyl)piperidino]methyl-1H-pyridin-2-one]",0.5 to 1 mg/kg
4,"O=c1ccnc(CN2CCC(COc3ccccc3F)CC2)[nH]1 [Example 137, 2-[4-(2-Fluorophenoxymethyl)piperidino]methyl-3H-pyrimidin-4-one]",0.5 to 1 mg/kg
5,"O=C(CC1CCN(Cc2ncc[nH]c2=O)CC1)c1ccccc1F [Example 139, 3-[4-[2-(2-Fluorophenyl)-2-oxoethyl]piperidino]methyl-1H-pyrazin-2-one]",0.5 to 1 mg/kg
6,"O=c1[nH]ccnc1CN1CCC(OCc2ccccc2F)CC1 [Example 141, 3-[4-(2-Fluorobenzyloxy)piperidino]methyl-1H-pyrazin-2-one]",< 0.5 mg/kg
7,"O=c1[nH]ccnc1CN1CCC(COc2ccc(F)cc2F)CC1 [Example 163, 3-[4-(2,4-Difluorophenoxymethyl)piperidino]methyl-1H-pyrazin-2-one]",< 0.5 mg/kg
8,"O=c1[nH]ccnc1CN1CCC(CC(F)c2ccccc2F)CC1 (stereo not shown) [Example 178, 3-[4-[2-Fluoro-2-(2-fluorophenyl)ethyl]piperidino]methyl-1H-pyrazin-2-one]",< 0.5 mg/kg
9,"O=c1nccc(CCN2CCC(COc3ccccc3F)CC2)[nH]1 [Example 181, 4-[2-[4-(2-Fluorophenoxymethyl)piperidino]ethyl]-3H-pyrimidin-2-one]",< 0.5 mg/kg
10,"O=c1[nH]cncc1CN1CCC(COc2ccccc2F)CC1 [Example 230, 5-[4-(2-Fluorophenoxymethyl)piperidino]methyl-3H-pyrimidin-4-one]",< 0.5 mg/kg
11,"O=c1[nH]ccnc1CCN1CCC(COc2ccccc2F)CC1 [Example 232, 3-[2-[4-(2-Fluorophenoxymethyl)piperidino]ethyl]-1H-pyrazin-2-one]",< 0.5 mg/kg
12,"O=c1cncc(CCN2CCC(COc3ccccc3F)CC2)[nH]1 [Example 233, 6-[2-[4-(2-Fluorophenoxymethyl)piperidino]ethyl]-1H-pyrazin-2-one]",< 0.5 mg/kg
13,"O=c1cncc(CCN2CCC(/C=C/c3ccccc3F)CC2)[nH]1 [Example 234, (E)-6-[2-[4-(2-(2-Fluorophenyl)vinyl]piperidino]ethyl]-1H-pyrazin-2-one]",0.5 to 1 mg/kg
